For the experiment, the system named is HIV-IIIb. The experiment is described as follows: Antiviral assay in MT4 cells. The note with it: Human immunodeficiency virus 1, MT4, 120 h; MT-4 cells mixed with HIV-IIIb at m.o.i. 0.003; 5 days at 37° C.; CellTiter-Glo luminescence; 50% decrease in signal, a measure of HIV-1 replication. The format is cell-based. The procedure:
Antiviral Assay in MT4 Cells For the antiviral assay, 40 μL of a concentration required to achieve a final effective 1× test concentration of 3-fold serially diluted compound in culture medium with 10% FBS was added to each well of a 384-well plate (10 concentrations) in quadruplicate. MT-4 cells were next mixed with HIV-IIIb at an m.o.i of 0.003 for 1 hour, after which time 35 μL of virus/cell mixture (2000 cells) was immediately added to each well containing 40 μL of diluted compound. The plates were then incubated at 37° C. for 5 days. After 5 days of incubation, 25 μl of 2× concentrated CellTiter-Glom Reagent (catalog #G7571, Promega Biosciences, Inc., Madison, WI) was added to each well containing MT-4 cells. Cell lysis was carried out by incubating at room temperature for 10 min and then chemiluminescence was read.

SMILES strings stand for the structures.

In turn, `CN(C)CCNc1nc2nc(C(Cc3cc(F)cc(F)c3)NC(=O)Cn3nc(C(F)F)c4c3C(F)(F)CCC4(F)F)c(-c3ccc(F)c(C#N)c3)cc2s1` (stereo not drawn) [Compound 21, N-(1-(6-(3-cyano-4-fluorophenyl)-2-((2-(dimethylamino)ethyl)amino)thiazolo[4,5-b]pyridin-5-yl)-2-(3,5-difluorophenyl)ethyl)-2-(3-(difluoromethyl)-4,4,7,7-tetrafluoro-4,5,6,7-tetrahydro-1H-indazol-1-yl)acetamide] had an EC50 not below 53200 nM.
With `CC(C)(O)C#CC1(Cl)Nc2nc(C(Cc3cc(F)cc(F)c3)NC(=O)Cn3nc(C(F)F)c4c3C(F)(F)CCC4(F)F)c(-c3ccc(F)c(C(N)=O)c3)cc2S1` (stereo not drawn) [Compound 22, 5-(2-chloro-5-(1-(2-(3-(difluoromethyl)-4,4,7,7-tetrafluoro-4,5,6,7-tetrahydro-1H-indazol-1-yl)acetamido)-2-(3,5-difluorophenyl)ethyl)-2-(3-hydroxy-3-methylbut-1-yn-1-yl)-2,3-dihydrothiazolo[4,5-b]pyridin-6-yl)-2-fluorobenzamide] the figure was 184 nM; with `O=C(Cn1nc(C(F)F)c2c1C(F)(F)[C@@H]1C[C@H]21)N[C@@H](Cc1cc(F)cc(F)c1)c1ccc2sc(-c3ccc4c(c3)C(=O)NC4)nc2n1` [Compound 23-1, 2-((3bS,4aR)-3-(difluoromethyl)-5,5-difluoro-3b,4,4a,5-tetrahydro-1H-cyclopropa[3,4]cyclopenta[1,2-c]pyrazol-1-yl)-N—((S)-2-(3,5-difluorophenyl)-1-(2-(3-oxoisoindolin-5-yl)thiazolo[4,5-b]pyridin-5-yl)ethyl)acetamide], 1930 nM.
For the compound `CSc1nc2nc([C@H](Cc3cc(F)cc(F)c3)NC(=O)Cn3nc(C(F)F)c4c3C(F)(F)[C@@H]3C[C@H]43)c(-c3ccc4c(c3)C(=O)NC4)cc2s1` [Compound 23-2, 2-((3bS,4aR)-3-(difluoromethyl)-5,5-difluoro-3b,4,4a,5-tetrahydro-1H-cyclopropa[3,4]cyclopenta[1,2-c]pyrazol-1-yl)-N—((S)-2-(3,5-difluorophenyl)-1-(2-(methylthio)-6-(3-oxoisoindolin-5-yl)thiazolo[4,5-b]pyridin-5-yl)ethyl)acetamide], the midpoint of the response, the EC50, lay at 984 nM.
With `NC(=O)c1cc(-c2cc3sc(N4CCN(C5COC5)CC4)nc3nc2[C@H](Cc2cc(F)cc(F)c2)NC(=O)Cn2nc(C(F)(F)F)c3c2C(F)(F)[C@@H]2C[C@H]32)ccc1F` [Compound 24, 5-(5-((S)-1-(2-((3bS,4aR)-5,5-difluoro-3-(trifluoromethyl)-3b,4,4a,5-tetrahydro-1H-cyclopropa[3,4]cyclopenta[1,2-c]pyrazol-1-yl)acetamido)-2-(3,5-difluorophenyl)ethyl)-2-(4-(oxetan-3-yl)piperazin-1-yl)thiazolo[4,5-b]pyridin-6-yl)-2-fluorobenzamide] the figure was 32.7 nM; with `NC(=O)c1cc(-c2cc3sc(N4CCN(c5cncnc5)CC4)nc3nc2[C@H](Cc2cc(F)cc(F)c2)NC(=O)Cn2nc(C(F)(F)F)c3c2C(F)(F)[C@@H]2C[C@H]32)ccc1F` [Compound 25, 5-(5-((S)-1-(2-((3bS,4aR)-5,5-difluoro-3-(trifluoromethyl)-3b,4,4a,5-tetrahydro-1H-cyclopropa[3,4]cyclopenta[1,2-c]pyrazol-1-yl)acetamido)-2-(3,5-difluorophenyl)ethyl)-2-(4-(pyrimidin-5-yl)piperazin-1-yl)thiazolo[4,5-b]pyridin-6-yl)-2-fluorobenzamide], 111 nM; with `NC(=O)c1cc(-c2cc3sc(N4CCN(c5ccncc5)CC4)nc3nc2[C@H](Cc2cc(F)cc(F)c2)NC(=O)Cn2nc(C(F)(F)F)c3c2C(F)(F)[C@@H]2C[C@H]32)ccc1F` [Compound 26, 5-(5-((S)-1-(2-((3bS,4aR)-5,5-difluoro-3-(trifluoromethyl)-3b,4,4a,5-tetrahydro-1H-cyclopropa[3,4]cyclopenta[1,2-c]pyrazol-1-yl)acetamido)-2-(3,5-difluorophenyl)ethyl)-2-(4-(pyridin-4-yl)piperazin-1-yl)thiazolo[4,5-b]pyridin-6-yl)-2-fluorobenzamide], 114 nM.
`NC(=O)c1cc(-c2cc3sc(N4C[C@@H]5C[C@H]4CN5C4COC4)nc3nc2[C@H](Cc2cc(F)cc(F)c2)NC(=O)Cn2nc(C(F)(F)F)c3c2C(F)(F)[C@@H]2C[C@H]32)ccc1F` [Compound 27, 5-(5-((S)-1-(2-((3bS,4aR)-5,5-difluoro-3-(trifluoromethyl)-3b,4,4a,5-tetrahydro-1H-cyclopropa[3,4]cyclopenta[1,2-c]pyrazol-1-yl)acetamido)-2-(3,5-difluorophenyl)ethyl)-2-((1S,4S)-5-(oxetan-3-yl)-2,5-diazabicyclo[2.2.1]heptan-2-yl)thiazolo[4,5-b]pyridin-6-yl)-2-fluorobenzamide] had a concentration giving a half-maximal response (EC50) of 52.3 nM.
With `NC(=O)c1cc(-c2cc3sc(N4CCN(c5ccc(-c6ncc[nH]6)cc5)CC4)nc3nc2[C@H](Cc2cc(F)cc(F)c2)NC(=O)Cn2nc(C(F)(F)F)c3c2C(F)(F)[C@@H]2C[C@H]32)ccc1F` [Compound 28-1, 5-(2-(4-(4-(1H-imidazol-2-yl)phenyl)piperazin-1-yl)-5-((S)-1-(2-((3bS,4aR)-5,5-difluoro-3-(trifluoromethyl)-3b,4,4a,5-tetrahydro-1H-cyclopropa[3,4]cyclopenta[1,2-c]pyrazol-1-yl)acetamido)-2-(3,5-difluorophenyl)ethyl)thiazolo[4,5-b]pyridin-6-yl)-2-fluorobenzamide] the figure was 300 nM; with `C[Si](C)(C)CCn1ccnc1-c1ccc(N2CCN(c3nc4nc([C@H](Cc5cc(F)cc(F)c5)NC(=O)Cn5nc(C(F)(F)F)c6c5C(F)(F)[C@@H]5C[C@H]65)c(-c5ccc(F)c(C(N)=O)c5)cc4s3)CC2)cc1` [Compound 28-2, 5-(5-((S)-1-(2-((3bS,4aR)-5,5-difluoro-3-(trifluoromethyl)-3b,4,4a,5-tetrahydro-1H-cyclopropa[3,4]cyclopenta[1,2-c]pyrazol-1-yl)acetamido)-2-(3,5-difluorophenyl)ethyl)-2-(4-(4-(1-(2-(trimethylsilyl)ethyl)-1H-imidazol-2-yl)phenyl)piperazin-1-yl)thiazolo[4,5-b]pyridin-6-yl)-2-fluorobenzamide], not below 53200 nM; with `NC(=O)c1cc(-c2cc3sc(N4CCC5(CC4)CNC(=O)O5)nc3nc2[C@H](Cc2cc(F)cc(F)c2)NC(=O)Cn2nc(C(F)(F)F)c3c2C(F)(F)[C@@H]2C[C@H]32)ccc1F` [Compound 29, 5-(5-((S)-1-(2-((3bS,4aR)-5,5-difluoro-3-(trifluoromethyl)-3b,4,4a,5-tetrahydro-1H-cyclopropa[3,4]cyclopenta[1,2-c]pyrazol-1-yl)acetamido)-2-(3,5-difluorophenyl)ethyl)-2-(2-oxo-1-oxa-3,8-diazaspiro[4.5]decan-8-yl)thiazolo[4,5-b]pyridin-6-yl)-2-fluorobenzamide], 121 nM.
With `CC1CN(c2nc3nc([C@H](Cc4cc(F)cc(F)c4)NC(=O)Cn4nc(C(F)(F)F)c5c4C(F)(F)[C@@H]4C[C@H]54)c(-c4ccc(F)c(C(N)=O)c4)cc3s2)CC(C)N1C1COC1` (stereo partly drawn) [Compound 30, 5-(5-((S)-1-(2-((3bS,4aR)-5,5-difluoro-3-(trifluoromethyl)-3b,4,4a,5-tetrahydro-1H-cyclopropa[3,4]cyclopenta[1,2-c]pyrazol-1-yl)acetamido)-2-(3,5-difluorophenyl)ethyl)-2-(3,5-dimethyl-4-(oxetan-3-yl)piperazin-1-yl)thiazolo[4,5-b]pyridin-6-yl)-2-fluorobenzamide] the figure was 47.3 nM; with `NC(=O)c1cc(-c2cc3sc(N4CCn5cnnc5C4)nc3nc2[C@H](Cc2cc(F)cc(F)c2)NC(=O)Cn2nc(C(F)(F)F)c3c2C(F)(F)[C@@H]2C[C@H]32)ccc1F` [Compound 31, 5-(5-((S)-1-(2-((3bS,4aR)-5,5-difluoro-3-(trifluoromethyl)-3b,4,4a,5-tetrahydro-1H-cyclopropa[3,4]cyclopenta[1,2-c]pyrazol-1-yl)acetamido)-2-(3,5-difluorophenyl)ethyl)-2-(5,6-dihydro-[1,2,4]triazolo[4,3-a]pyrazin-7(8H)-yl)thiazolo[4,5-b]pyridin-6-yl)-2-fluorobenzamide], 466 nM; with `CC1(O)CN(c2nc3nc([C@H](Cc4cc(F)cc(F)c4)NC(=O)Cn4nc(C(F)(F)F)c5c4C(F)(F)[C@@H]4C[C@H]54)c(-c4ccc(F)c(C(N)=O)c4)cc3s2)C1` [Compound 32, 5-(5-((S)-1-(2-((3bS,4aR)-5,5-difluoro-3-(trifluoromethyl)-3b,4,4a,5-tetrahydro-1H-cyclopropa[3,4]cyclopenta[1,2-c]pyrazol-1-yl)acetamido)-2-(3,5-difluorophenyl)ethyl)-2-(3-hydroxy-3-methylazetidin-1-yl)thiazolo[4,5-b]pyridin-6-yl)-2-fluorobenzamide], 60.6 nM.
The result for `NC(=O)c1cc(-c2cc3sc(N4CCNC(=O)C4)nc3nc2[C@H](Cc2cc(F)cc(F)c2)NC(=O)Cn2nc(C(F)(F)F)c3c2C(F)(F)[C@@H]2C[C@H]32)ccc1F` [Compound 33, 5-(5-((S)-1-(2-((3bS,4aR)-5,5-difluoro-3-(trifluoromethyl)-3b,4,4a,5-tetrahydro-1H-cyclopropa[3,4]cyclopenta[1,2-c]pyrazol-1-yl)acetamido)-2-(3,5-difluorophenyl)ethyl)-2-(3-oxopiperazin-1-yl)thiazolo[4,5-b]pyridin-6-yl)-2-fluorobenzamide] reads 88.3 nM.

Usually EC50 stands for the concentration that produces a half-maximal response. The low end stands for a more potent agent, the high end for a less potent agent.

For the origin of these results see US12077537B2 (Gilead Sciences, Inc., priority 2020, dated 2024).
